Measurements taken from US20250064941A1, “SIGLEC LIGANDS, CONJUGATES, AND METHODS OF USE THEREOF” (Osprey Biopharmaceuticals, Inc., priority 2023, published 2025).

How the values were obtained:
[1] = biological target: T1, mouse Siglec-2-Fc-Avi (CD22) (Mus musculus, UniProt P35329); test: SPR binding affinity to mouse CD22; details: steady-state analysis
T1 construct: made in house
T1 sequence (P35329 22-708 limits assumed): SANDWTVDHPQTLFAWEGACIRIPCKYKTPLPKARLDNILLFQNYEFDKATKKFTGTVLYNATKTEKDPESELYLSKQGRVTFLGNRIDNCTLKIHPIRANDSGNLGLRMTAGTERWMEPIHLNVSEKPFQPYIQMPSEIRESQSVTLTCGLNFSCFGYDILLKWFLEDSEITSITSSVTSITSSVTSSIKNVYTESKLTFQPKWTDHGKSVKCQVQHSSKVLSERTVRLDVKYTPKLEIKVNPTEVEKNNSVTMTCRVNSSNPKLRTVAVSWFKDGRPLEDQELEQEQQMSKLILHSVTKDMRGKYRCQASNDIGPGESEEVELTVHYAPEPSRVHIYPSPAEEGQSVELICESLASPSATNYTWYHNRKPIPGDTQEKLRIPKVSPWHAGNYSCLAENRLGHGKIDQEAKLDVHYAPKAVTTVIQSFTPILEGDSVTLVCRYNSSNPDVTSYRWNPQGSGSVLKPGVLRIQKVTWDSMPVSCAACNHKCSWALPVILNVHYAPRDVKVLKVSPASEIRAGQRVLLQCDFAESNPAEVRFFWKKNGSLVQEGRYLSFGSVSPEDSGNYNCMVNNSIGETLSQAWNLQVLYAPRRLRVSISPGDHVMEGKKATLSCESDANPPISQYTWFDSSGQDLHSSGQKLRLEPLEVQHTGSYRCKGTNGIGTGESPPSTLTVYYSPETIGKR
How it was run: (§1)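 Steady-state fits gave the affinities. Before capture on a streptavidin surface, biotinylated CD22 had native sialic acids stripped (SialoExo, 4 hours, 37° C.). Running buffer: 10 mM HEPES pH 7.5, 150 mM NaCl, 0.05% Tween-20, 1% DMSO, with DMSO solvent correction.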

[2] = biological target: T2, human Siglec-2/CD22 protein (Homo sapiens, UniProt P20273); test: SPR binding affinity to human CD22; details: steady-state analysis
T2 construct: purchased Acro Biosystems SI2-H82E3
T2 sequence (P20273 20-847): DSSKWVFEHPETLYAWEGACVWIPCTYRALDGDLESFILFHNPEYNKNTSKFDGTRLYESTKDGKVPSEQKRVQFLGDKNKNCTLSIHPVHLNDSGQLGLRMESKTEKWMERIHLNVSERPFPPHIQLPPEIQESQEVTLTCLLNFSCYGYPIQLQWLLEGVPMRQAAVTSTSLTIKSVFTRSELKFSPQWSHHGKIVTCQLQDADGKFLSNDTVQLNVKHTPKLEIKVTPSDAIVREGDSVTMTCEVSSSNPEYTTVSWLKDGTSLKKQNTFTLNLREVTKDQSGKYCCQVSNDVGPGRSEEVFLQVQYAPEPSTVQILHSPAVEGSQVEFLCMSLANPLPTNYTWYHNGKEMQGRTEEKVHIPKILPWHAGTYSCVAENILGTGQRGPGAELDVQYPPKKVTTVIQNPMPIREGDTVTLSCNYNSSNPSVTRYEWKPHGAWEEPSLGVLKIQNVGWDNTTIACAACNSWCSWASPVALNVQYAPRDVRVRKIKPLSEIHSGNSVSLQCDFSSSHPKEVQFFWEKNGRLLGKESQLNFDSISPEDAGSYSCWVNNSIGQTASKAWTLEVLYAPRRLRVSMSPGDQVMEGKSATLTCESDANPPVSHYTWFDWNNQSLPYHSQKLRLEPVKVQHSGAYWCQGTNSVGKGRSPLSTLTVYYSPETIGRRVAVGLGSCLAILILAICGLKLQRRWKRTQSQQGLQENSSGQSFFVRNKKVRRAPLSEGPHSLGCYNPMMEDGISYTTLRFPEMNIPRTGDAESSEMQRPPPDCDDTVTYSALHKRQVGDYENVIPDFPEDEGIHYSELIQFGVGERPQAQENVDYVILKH
How it was run: as §1

cynomolgus Siglec-2/CD22 = cynomolgus Siglec-2/CD22 (Macaca fascicularis, UniProt A0A2K5WCZ6); test: biochemical; assay type: binding; details: SPR, steady-state analysis; read-out: Affinity cyno CD22
How it was run: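 Compound binding measured by steady-state SPR analysis, 120 s dissociation, in HEPES-NaCl-Tween buffer pH 7.5 containing 1% DMSO, DMSO solvent-corrected. Surface: cyno CD22, sialic acids first stripped by SialoExo for 4 h at 37° C., then amine-coupled onto CM5.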

Sequence of cynomolgus Siglec-2/CD22 (A0A2K5WCZ6 entry or part of it): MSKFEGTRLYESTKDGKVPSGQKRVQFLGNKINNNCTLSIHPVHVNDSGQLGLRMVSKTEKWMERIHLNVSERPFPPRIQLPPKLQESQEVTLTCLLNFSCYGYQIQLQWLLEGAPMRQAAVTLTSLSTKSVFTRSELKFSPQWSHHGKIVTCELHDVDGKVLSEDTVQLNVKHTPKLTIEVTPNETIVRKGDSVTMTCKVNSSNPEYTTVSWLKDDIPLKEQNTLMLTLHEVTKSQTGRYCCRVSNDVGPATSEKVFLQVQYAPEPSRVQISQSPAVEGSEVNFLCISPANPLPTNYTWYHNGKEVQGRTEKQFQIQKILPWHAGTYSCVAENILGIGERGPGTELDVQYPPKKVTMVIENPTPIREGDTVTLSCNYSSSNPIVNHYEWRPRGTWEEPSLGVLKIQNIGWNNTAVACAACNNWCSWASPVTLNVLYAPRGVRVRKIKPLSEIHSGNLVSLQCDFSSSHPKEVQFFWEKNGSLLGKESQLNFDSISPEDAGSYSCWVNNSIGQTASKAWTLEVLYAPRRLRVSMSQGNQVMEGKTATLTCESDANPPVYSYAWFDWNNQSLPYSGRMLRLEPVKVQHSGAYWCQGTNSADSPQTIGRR

SMILES: C#CCCOc1ccc(CO[C@]2(C(=O)O)C[C@H](O)[C@@H](NC(=O)CO)[C@H]([C@H](O)[C@H](O)CNC(=O)Cc3cccc(-c4ccccc4O)c3)O2)cc1 [Compound 46, (2R,4S,5R,6R)-2-((4-(but-3-yn-1-yloxy)benzyl)oxy)-6-((1R,2R)-1,2-dihydroxy-3-(2-(2′-hydroxy-[1,1′-biphenyl]-3-yl)acetamido)propyl)-4-hydroxy-5-(2-hydroxyacetamido)tetrahydro-2H-pyran-2-carboxylic acid]
- Kd [1]: 1 to 10 µM
- Kd [2]: < 1 µM
- Kd (cynomolgus Siglec-2/CD22): 1 to 10 µM

SMILES: C#CCOc1ccc(CO[C@]2(C(=O)O)C[C@H](O)[C@@H](NC(=O)CO)[C@H]([C@H](O)[C@H](O)CNC(=O)Cc3ccc(-c4ccc(O)cc4)c(Cl)c3)O2)cc1 [Compound 47, (2R,4S,5R,6R)-6-((1R,2R)-3-(2-(2-chloro-4′-hydroxy-[1,1′-biphenyl]-4-yl)acetamido)-1,2-dihydroxypropyl)-4-hydroxy-5-(2-hydroxyacetamido)-2-((4-(prop-2-yn-1-yloxy)benzyl)oxy)tetrahydro-2H-pyran-2-carboxylic acid]
- Kd [1]: < 1 µM
- Kd [2]: < 1 µM
- Kd (cynomolgus Siglec-2/CD22): < 1 µM

SMILES: C#CCOc1ccc(CO[C@]2(C(=O)O)C[C@H](O)[C@@H](NC(=O)CO)[C@H]([C@H](O)[C@H](O)CNC(=O)Cc3ccc(-c4ccc(F)cc4)cc3)O2)cc1 [Compound 48, (2R,4S,5R,6R)-6-((1R,2R)-3-(2-(4′-fluoro-[1,1′-biphenyl]-4-yl)acetamido)-1,2-dihydroxypropyl)-4-hydroxy-5-(2-hydroxyacetamido)-2-((4-(prop-2-yn-1-yloxy)benzyl)oxy)tetrahydro-2H-pyran-2-carboxylic acid]
- Kd [1]: 1 to 10 µM
- Kd [2]: < 1 µM
- Kd (cynomolgus Siglec-2/CD22): 1 to 10 µM

SMILES: C#CCCCCCCS[C@]1(C(=O)O)C[C@H](O)[C@@H](NC(=O)CO)[C@H]([C@H](O)[C@H](O)CNC(=O)Cc2ccc(-c3ccc(O)cc3)cc2)O1 [Compound 49, (2S,4S,5R,6R)-6-((1R,2R)-1,2-dihydroxy-3-(2-(4′-hydroxy-[1,1′-biphenyl]-4-yl)acetamido)propyl)-4-hydroxy-5-(2-hydroxyacetamido)-2-(oct-7-yn-1-ylthio)tetrahydro-2H-pyran-2-carboxylic acid]
- Kd [1]: < 1 µM
- Kd [2]: < 1 µM
- Kd (cynomolgus Siglec-2/CD22): < 1 µM

SMILES: C#CCCOc1ccc(CO[C@]2(C(=O)O)C[C@H](O)[C@@H](NC(=O)CO)[C@H]([C@H](O)[C@H](O)CNC(=O)Cc3ccc(-c4ccc(NC(C)=O)cc4)cc3)O2)cc1 [Compound 50, (2R,4S,5R,6R)-6-((1R,2R)-3-(2-(4′-acetamido-[1,1′-biphenyl]-4-yl)acetamido)-1,2-dihydroxypropyl)-2-((4-(but-3-yn-1-yloxy)benzyl)oxy)-4-hydroxy-5-(2-hydroxyacetamido)tetrahydro-2H-pyran-2-carboxylic acid]
- Kd [1]: < 1 µM
- Kd [2]: < 1 µM
- Kd (cynomolgus Siglec-2/CD22): 1 to 10 µM

SMILES: C#CCOc1ccc(CO[C@]2(C(=O)O)C[C@H](O)[C@@H](NC(=O)CO)[C@H]([C@H](O)[C@H](O)CNC(=O)Cc3ccc(-c4ccc(O)cc4)cc3OC)O2)cc1 [Compound 51, (2R,4S,5R,6R)-6-((1R,2R)-1,2-dihydroxy-3-(2-(4′-hydroxy-3-methoxy-[1,1′-biphenyl]-4-yl)acetamido)propyl)-4-hydroxy-5-(2-hydroxyacetamido)-2-((4-(prop-2-yn-1-yloxy)benzyl)oxy)tetrahydro-2H-pyran-2-carboxylic acid]
- Kd [1]: < 1 µM
- Kd [2]: < 1 µM
- Kd (cynomolgus Siglec-2/CD22): 1 to 10 µM

SMILES: C#CCOc1ccc(CO[C@]2(C(=O)O)C[C@H](O)[C@@H](NC(=O)CO)[C@H]([C@H](O)[C@H](O)CNC(=O)Cc3ccc(-c4ccc(O)cc4)cc3Cl)O2)cc1 [Compound 52, (2R,4S,5R,6R)-6-((1R,2R)-3-(2-(3-chloro-4′-hydroxy-[1,1′-biphenyl]-4-yl)acetamido)-1,2-dihydroxypropyl)-4-hydroxy-5-(2-hydroxyacetamido)-2-((4-(prop-2-yn-1-yloxy)benzyl)oxy)tetrahydro-2H-pyran-2-carboxylic acid]
- Kd [1]: < 1 µM
- Kd [2]: < 1 µM
- Kd (cynomolgus Siglec-2/CD22): 1 to 10 µM

SMILES: C#CCOc1ccc(-c2cn([C@]3(C(=O)O)C[C@H](O)[C@@H](NC(=O)CO)[C@H]([C@H](O)[C@H](O)CNC(=O)Cc4ccc(-c5ccc(O)cc5)cc4)O3)nn2)cc1 [Compound 53, (2R,4S,5R,6R)-6-((1R,2R)-1,2-dihydroxy-3-(2-(4′-hydroxy-[1,1′-biphenyl]-4-yl)acetamido)propyl)-4-hydroxy-5-(2-hydroxyacetamido)-2-(4-(4-(prop-2-yn-1-yloxy)phenyl)-1H-1,2,3-triazol-1-yl)tetrahydro-2H-pyran-2-carboxylic acid]
- Kd [1]: 1 to 10 µM
- Kd [2]: < 1 µM
- Kd (cynomolgus Siglec-2/CD22): 1 to 10 µM

SMILES: O=C(Cc1ccc(-c2ccc(O)cc2)cc1)NC[C@@H](O)[C@@H](O)[C@@H]1O[C@](C(=O)O)(n2cc(-c3ccccc3O)nn2)C[C@H](O)[C@H]1NC(=O)CO [Compound 54, (2R,4S,5R,6R)-6-((1R,2R)-1,2-dihydroxy-3-(2-(4′-hydroxy-[1,1′-biphenyl]-4-yl)acetamido)propyl)-4-hydroxy-5-(2-hydroxyacetamido)-2-(4-(2-hydroxyphenyl)-1H-1,2,3-triazol-1-yl)tetrahydro-2H-pyran-2-carboxylic acid]
- Kd [1]: > 10 µM
- Kd [2]: < 1 µM
- Kd (cynomolgus Siglec-2/CD22): 1 to 10 µM

SMILES: C#CCCOc1ccc(CO[C@]2(C(=O)O)C[C@H](O)[C@@H](N)[C@H]([C@H](O)[C@H](O)CNC(=O)Cc3ccc(-c4ccc(O)cc4)cc3)O2)cc1 [Compound 55, (2R,4S,5R,6R)-5-amino-2-((4-(but-3-yn-1-yloxy)benzyl)oxy)-6-((1R,2R)-1,2-dihydroxy-3-(2-(4′-hydroxy-[1,1′-biphenyl]-4-yl)acetamido)propyl)-4-hydroxytetrahydro-2H-pyran-2-carboxylic acid]
- Kd [1]: < 1 µM
- Kd [2]: 1 to 10 µM
- Kd (cynomolgus Siglec-2/CD22): 1 to 10 µM

SMILES: C#CCOc1ccc(CO[C@]2(C(=O)O)C[C@H](O)[C@@H](NC(=O)CO)[C@H]([C@H](O)[C@H](O)CNC(=O)Cc3ccc(-c4ccc(O)cc4)cc3C)O2)cc1 [Compound 56, (2R,4S,5R,6R)-6-((1R,2R)-1,2-dihydroxy-3-(2-(4′-hydroxy-3-methyl-[1,1′-biphenyl]-4-yl)acetamido)propyl)-4-hydroxy-5-(2-hydroxyacetamido)-2-((4-(prop-2-yn-1-yloxy)benzyl)oxy)tetrahydro-2H-pyran-2-carboxylic acid]
- Kd [1]: < 1 µM
- Kd [2]: < 1 µM
- Kd (cynomolgus Siglec-2/CD22): 1 to 10 µM

SMILES: C#CCOCCOCCO[C@]1(C(=O)O)C[C@H](O)[C@@H](NC(=O)CNC(C)=O)[C@H]([C@H](O)[C@H](O)CNC(=O)Cc2ccc(-c3ccc(O)cc3)cc2)O1 [Compound 57, (2R,4S,5R,6R)-5-(2-acetamidoacetamido)-6-((1R,2R)-1,2-dihydroxy-3-(2-(4′-hydroxy-[1,1′-biphenyl]-4-yl)acetamido)propyl)-4-hydroxy-2-(2-(2-(prop-2-yn-1-yloxy)ethoxy)ethoxy)tetrahydro-2H-pyran-2-carboxylic acid]
- Kd [1]: > 10 µM
- Kd [2]: 1 to 10 µM
- Kd (cynomolgus Siglec-2/CD22): 1 to 10 µM
